Measurements published in US8575156B2, “Cyclic inhibitors of 11β-hydroxysteroid dehydrogenase 1” (Vitae Pharmaceuticals, Inc., priority 2007, dated 2013).

Molecular target: 11β-HSD1 (Homo sapiens, UniProt P28845)
Assay: biochemical
Details: for IC50: IC50 Range, Biological Test Example 1, microsomes from CHO cells overexpressing human 11β-HSD1; for inhibition at 0.1 µM: read-out: Average % inhibition at 100 nM, Biological Test Example 1, 100 nM

Sequence of 11β-HSD1 (P28845 whole entry): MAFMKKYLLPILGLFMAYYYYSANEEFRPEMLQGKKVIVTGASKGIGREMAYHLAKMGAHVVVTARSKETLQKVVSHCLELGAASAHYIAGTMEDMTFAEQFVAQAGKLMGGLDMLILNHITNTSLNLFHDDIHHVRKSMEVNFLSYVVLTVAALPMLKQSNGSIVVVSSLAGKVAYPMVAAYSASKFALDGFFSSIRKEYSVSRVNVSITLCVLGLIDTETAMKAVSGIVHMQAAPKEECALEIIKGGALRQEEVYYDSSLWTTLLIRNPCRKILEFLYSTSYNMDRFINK

Compound | IC50 [nM] | inhibition at 0.1 µM [%]
C[C@@H](c1cccc(CO)c1)N1CC[C@](CCCO)(c2ccc(F)cc2)OC1=O [EXAMPLE 363, (R)-6-(4-fluorophenyl)-3-((S)-1-(3-(hydroxymethyl)phenyl)ethyl)-6-(3-hydroxypropyl)-1,3-oxazinan-2-one] | < 100 | 74.5
C[C@@H](c1ccc(Br)cc1)N1CC[C@](CCCO)(c2ccc(F)cc2F)OC1=O [EXAMPLE 366, (R)-3-((S)-1-(4-bromophenyl)ethyl)-6-(2,4-difluorophenyl)-6-(3-hydroxypropyl)-1,3-oxazinan-2-one] | < 100 | 95.1
CC[C@@H](c1ccc(Br)cc1)N1CC[C@](CCC(N)=O)(c2ccc(F)cc2)OC1=O [EXAMPLE 368, 3-((R)-3-((S)-1-(4-bromophenyl)propyl)-6-(4-fluorophenyl)-2-oxo-1,3-oxazinan-6-yl)propanamide] | < 100 | 96.9
C[C@@H](c1ccc(Br)cc1)N1CC[C@](CCN2CCCC2)(c2ccc(F)cc2)OC1=O [EXAMPLE 376, (R)-3-((S)-1-(4-bromophenyl)ethyl)-6-(4-fluorophenyl)-6-(2-(pyrrolidin-1-yl)ethyl)-1,3-oxazinan-2-one] | < 100 | 50.3
C[C@@H](c1ccc(Br)cc1)N1CC[C@](CCN2CC[C@H](F)C2)(c2ccc(F)cc2)OC1=O [EXAMPLE 377, (R)-3-((S)-1-(4-bromophenyl)ethyl)-6-(4-fluorophenyl)-6-(2-((S)-3-fluoropyrrolidin-1-yl)ethyl)-1,3-oxazinan-2-one] | < 100 | 72
C[C@@H](c1ccc(Br)cc1)N1CC[C@](CCN2CC[C@@H](F)C2)(c2ccc(F)cc2)OC1=O [EXAMPLE 378, (R)-3-((S)-1-(4-bromophenyl)ethyl)-6-(4-fluorophenyl)-6-(2-((R)-3-fluoropyrrolidin-1-yl)ethyl)-1,3-oxazinan-2-one] | < 100 | 70
C[C@@H](c1ccc(Br)cc1)N1CC[C@](CCN2CCNC(=O)C2)(c2ccc(F)cc2)OC1=O [EXAMPLE 379, (R)-3-((S)-1-(4-bromophenyl)ethyl)-6-(4-fluorophenyl)-6-(2-(3-oxopiperazin-1-yl)ethyl)-1,3-oxazinan-2-one] | < 100 | 57.7
NC(=O)c1ccc(-c2ccccc2CN2CCC(CCCO)(c3ccc(F)cc3)OC2=O)cc1 (centres unmarked) [EXAMPLE 386, 2′((6-(4-fluorophenyl)-6-(3-hydroxypropyl)-2-oxo-1,3-oxazinan-3-yl)methyl)biphenyl-4-carboxamide] | < 100 | 52.5
C[C@@H](c1ccc(Br)cc1)N1CC[C@](CCCO)(c2ccccc2)OC1=O [EXAMPLE 392, (R)-3-((S)-1-(4-bromophenyl)ethyl)-6-(3-hydroxypropyl)-6-phenyl-1,3-oxazinan-2-one] | < 100 | 
C[C@@H](c1ccc(Br)cc1)N1CC[C@](CCCNS(C)(=O)=O)(c2ccccc2)OC1=O [EXAMPLE 394, N-(3-((R)-3-((S)-1-(4-bromophenyl)ethyl)-2-oxo-6-phenyl-1,3-oxazinan-6-yl)propyl)methanesulfonamide] | < 100 | 99.1
C[C@@H](c1ccc(Br)cc1)N1CC[C@](CCO)(c2ccccc2)OC1=O [EXAMPLE 396, (S)-3-((S)-1-(4-bromophenyl)ethyl)-6-(2-hydroxyethyl)-6-phenyl-1,3-oxazinan-2-one] | < 100 | 
C[C@@H](c1ccc(Br)cc1)N1CC[C@](CCN2CCOCC2)(c2ccccc2)OC1=O [EXAMPLE 397, (R)-3-((S)-1-(4-bromophenyl)ethyl)-6-(2-morpholinoethyl)-6-phenyl-1,3-oxazinan-2-one] | < 100 | 94.7
CC[C@@H](c1ccc(Br)cc1)N1CC[C@](CCC(N)=O)(c2ccccc2)OC1=O [EXAMPLE 398, 3-((R)-3-((S)-1-(4-bromophenyl)propyl)-2-oxo-6-phenyl-1,3-oxazinan-6-yl)propanamide] | < 100 | 97.7
C[C@@H](c1ccc(Cl)cc1)N1CC[C@](CCO)(c2ccccc2)OC1=O [EXAMPLE 401, (S)-3-((S)-1-(4-chlorophenyl)ethyl)-6-(2-hydroxyethyl)-6-phenyl-1,3-oxazinan-2-one] | < 100 | 98.6
C[C@@H](c1ccc(Cl)cc1)N1CC[C@](CCCO)(c2ccccc2)OC1=O [EXAMPLE 403, (R)-3-((S)-1-(4-chlorophenyl)ethyl)-6-(3-hydroxypropyl)-6-phenyl-1,3-oxazinan-2-one] | < 100 | 99.5
C[C@@H](c1ccc(Cl)cc1)N1CC[C@](CCCNS(C)(=O)=O)(c2ccccc2)OC1=O [EXAMPLE 404, N-(3-((R)-3-((S)-1-(4-chlorophenyl)ethyl)-2-oxo-6-phenyl-1,3-oxazinan-6-yl)propyl)methanesulfonamide] | < 100 | 91.2

Other lines, results leading:

IC50 [nM] | inhibition at 0.1 µM [%] | Compound
< 100 | 66.3 | C=CC[C@]1(c2ccc(F)cc2)CCN([C@@H](C)c2cccc(C(C)(C)O)c2)C(=O)O1 [EXAMPLE 364, (R)-6-allyl-6-(4-fluorophenyl)-3-((S)-1-(3-(2-hydroxypropan-2-yl)phenyl)ethyl)-1,3-oxazinan-2-one]
< 100 | 44.8 | Cc1ccc([C@H](C)N2CC[C@](CCCO)(c3ccc(F)cc3)OC2=O)cn1 [EXAMPLE 367, (R)-6-(4-fluorophenyl)-6-(3-hydroxypropyl)-3-((S)-1-(6-methylpyridin-3-yl)ethyl)-1,3-oxazinan-2-one]
< 100 | 89.1 | C[C@@H](c1ccc(Br)cc1)N1CC[C@](CCC(C)(C)O)(c2ccc(F)cc2)OC1=O [EXAMPLE 373, (R)-3-((S)-1-(4-bromophenyl)ethyl)-6-(4-fluorophenyl)-6-(3-hydroxy-3-methylbutyl)-1,3-oxazinan-2-one]
< 100 | 52.2 | C[C@@H](c1ccc(Br)cc1)N1CC[C@](CCN2CCC2)(c2ccc(F)cc2)OC1=O [EXAMPLE 374, (R)-6-(2-(azetidin-1-yl)ethyl)-3-((S)-1-(4-bromophenyl)ethyl)-6-(4-fluorophenyl)-1,3-oxazinan-2-one]
< 100 | 70.9 | C[C@@H](c1ccc(Br)cc1)N1CC[C@](CCNCCF)(c2ccc(F)cc2)OC1=O [EXAMPLE 375, (R)-3-((S)-1-(4-bromophenyl)ethyl)-6-(2-(2-fluoroethylamino)ethyl)-6-(4-fluorophenyl)-1,3-oxazinan-2-one]
< 100 | 97.2 | C[C@@H](c1ccc(Cl)cc1)N1CC[C@](CCO)(c2ccc(F)cc2)OC1=O [EXAMPLE 380, (S)-3-((S)-1-(4-chlorophenyl)ethyl)-6-(4-fluorophenyl)-6-(2-hydroxyethyl)-1,3-oxazinan-2-one]
< 100 | 97.2 | C[C@@H](c1ccc(Cl)cc1)N1CC[C@](CC(C)(C)O)(c2ccc(F)cc2)OC1=O [EXAMPLE 381, (S)-3-((S)-1-(4-chlorophenyl)ethyl)-6-(4-fluorophenyl)-6-(2-hydroxy-2-methylpropyl)-1,3-oxazinan-2-one]
< 100 | 81.3 | C[C@@H](c1ccc(Cl)cc1)N1CC[C@](CCC(C)(C)O)(c2ccc(F)cc2)OC1=O [EXAMPLE 382, (R)-3-((S)-1-(4-chlorophenyl)ethyl)-6-(4-fluorophenyl)-6-(3-hydroxy-3-methylbutyl)-1,3-oxazinan-2-one]
< 100 | 89.2 | C[C@@H](c1ccc(Cl)cc1)N1CC[C@](CCCNS(C)(=O)=O)(c2ccc(F)cc2)OC1=O [EXAMPLE 384, N-(3-((R)-3-((S)-1-(4-chlorophenyl)ethyl)-6-(4-fluorophenyl)-2-oxo-1,3-oxazinan-6-yl)propyl)methanesulfonamide]
< 100 | 95.8 | C[C@@H](c1ccc(C(F)(F)F)cc1)N1CC[C@](CCO)(c2ccc(F)cc2)OC1=O [EXAMPLE 387, (S)-6-(4-fluorophenyl)-6-(2-hydroxyethyl)-3-((S)-1-(4-(trifluoromethyl)phenyl)ethyl)-1,3-oxazinan-2-one]
< 100 | 96.4 | C[C@@H](c1ccc(C(F)(F)F)cc1)N1CC[C@](CCCNS(C)(=O)=O)(c2ccc(F)cc2)OC1=O [EXAMPLE 389, N-(3-((R)-6-(4-fluorophenyl)-2-oxo-3-((S)-1-(4-(trifluoromethyl)phenyl)ethyl)-1,3-oxazinan-6-yl)propyl)methanesulfonamide]
< 100 | 96.3 | C[C@@H](c1ccc(C(F)(F)F)cc1)N1CC[C@](CC(C)(C)O)(c2ccc(F)cc2)OC1=O [EXAMPLE 390, (S)-6-(4-fluorophenyl)-6-(2-hydroxy-2-methylpropyl)-3-((S)-1-(4-(trifluoromethyl)phenyl)ethyl)-1,3-oxazinan-2-one]
< 100 | 97.9 | C[C@@H](c1ccc(C(F)(F)F)cc1)N1CC[C@](CCO)(c2ccccc2)OC1=O [EXAMPLE 399, (S)-6-(2-hydroxyethyl)-6-phenyl-3-((S)-1-(4-(trifluoromethyl)phenyl)ethyl)-1,3-oxazinan-2-one]
< 100 | 96.8 | C[C@@H](c1ccc(C(F)(F)F)cc1)N1CC[C@](CC(C)(C)O)(c2ccccc2)OC1=O [EXAMPLE 400, (S)-6-(2-hydroxy-2-methylpropyl)-6-phenyl-3-((S)-1-(4-(trifluoromethyl)phenyl)ethyl)-1,3-oxazinan-2-one]
< 100 | 96.8 | C[C@@H](c1ccc(Cl)cc1)N1CC[C@](CC(C)(C)O)(c2ccccc2)OC1=O [EXAMPLE 402, (S)-3-((S)-1-(4-chlorophenyl)ethyl)-6-(2-hydroxy-2-methylpropyl)-6-phenyl-1,3-oxazinan-2-one]
< 100 | 86.4 | C[C@@H](c1ccc(F)cc1)N1CC[C@](CCO)(c2ccc(F)cc2)OC1=O [EXAMPLE 406, (S)-6-(4-fluorophenyl)-3-((S)-1-(4-fluorophenyl)ethyl)-6-(2-hydroxyethyl)-1,3-oxazinan-2-one]
